# Experimental data: ChEMBL document CHEMBL3393054, “Development of 2-aminooxazoline 3-azaxanthenes as orally efficacious β-secretase inhibitors for the potential treatment of Alzheimer's disease” (Bioorg Med Chem Lett, 2015)
# Key:
# Beta-secretase 1 [1] = target: T1, Beta-secretase 1 (Homo sapiens, UniProt P56817)
# Rattus norvegicus [2] = species on record: Rattus norvegicus; conditions: dose 10 mg/kg; route oral
# Rattus norvegicus [3] = species on record: Rattus norvegicus; conditions: dose 10 mg/kg; route oral; remark: listed apart in the source
# Cathepsin D = Cathepsin D (Homo sapiens, UniProt P07339)
# Cathepsin D, sequence (P07339 65-162 limits assumed): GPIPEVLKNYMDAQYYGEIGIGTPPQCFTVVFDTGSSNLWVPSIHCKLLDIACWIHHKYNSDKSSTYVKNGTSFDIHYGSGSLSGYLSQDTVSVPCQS
# Cathepsin D, sequence (P07339 169-412 limits assumed): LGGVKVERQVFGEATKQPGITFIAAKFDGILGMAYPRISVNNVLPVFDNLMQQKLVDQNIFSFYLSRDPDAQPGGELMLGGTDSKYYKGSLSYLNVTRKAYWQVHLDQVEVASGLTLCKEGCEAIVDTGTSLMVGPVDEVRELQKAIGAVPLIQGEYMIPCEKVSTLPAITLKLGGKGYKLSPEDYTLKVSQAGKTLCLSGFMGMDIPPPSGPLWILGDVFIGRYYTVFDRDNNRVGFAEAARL
# Beta-secretase 1 [4] = target: T1, Beta-secretase 1; remark: listed apart in the source
# Rattus norvegicus [5] = species on record: Rattus norvegicus; assay: animal or person; conditions: Sprague-Dawley, Cerebrospinal fluid, po, 4 h, read-out: INH
# T1 sequence (P56817 whole entry): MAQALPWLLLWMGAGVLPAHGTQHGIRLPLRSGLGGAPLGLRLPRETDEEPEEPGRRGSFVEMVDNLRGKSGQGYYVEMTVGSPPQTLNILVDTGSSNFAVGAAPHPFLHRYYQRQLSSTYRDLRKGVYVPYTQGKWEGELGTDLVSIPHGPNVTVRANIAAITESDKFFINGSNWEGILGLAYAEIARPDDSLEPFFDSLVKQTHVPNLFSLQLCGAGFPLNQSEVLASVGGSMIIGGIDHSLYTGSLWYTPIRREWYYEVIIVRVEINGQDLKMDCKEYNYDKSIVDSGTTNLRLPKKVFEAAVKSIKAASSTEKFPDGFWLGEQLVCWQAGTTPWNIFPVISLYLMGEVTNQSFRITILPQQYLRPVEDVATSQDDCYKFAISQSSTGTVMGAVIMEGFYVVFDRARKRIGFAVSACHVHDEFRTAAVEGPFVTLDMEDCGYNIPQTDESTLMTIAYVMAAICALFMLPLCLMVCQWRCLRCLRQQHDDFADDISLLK
SMILES,IC50 (Beta-secretase 1 [1]),fEC50 (Rattus norvegicus [2]),fEC50 (Rattus norvegicus [3]),IC50 (Cathepsin D),IC50 (Beta-secretase 1 [4]),inhibition in vivo at 10 mg/kg (Rattus norvegicus [5])
NC1=N[C@@]2(CO1)c1cc(-c3cccnc3F)ccc1Oc1cnc(C3=CCOCC3)cc12,0.7 nM,60 nM,27 nM,640 nM,4.2 nM,–
CC1(C)C=C(c2cc3c(cn2)Oc2ccc(-c4cccnc4F)cc2[C@@]32COC(N)=N2)CCO1,0.9 nM,57 nM,34 nM,710 nM,7.4 nM,76%
NC1=N[C@@]2(CO1)c1cc(-c3cccnc3F)ccc1Oc1cnc(C3=CCCOC3)cc12,0.5 nM,31 nM,16 nM,1080 nM,7.9 nM,–
NC1=N[C@@]2(CO1)c1cc(-c3cccnc3F)ccc1Oc1cnc(C3CCOCC3)cc12,7.1 nM,659 nM,339 nM,3390 nM,49.5 nM,–
NC1=N[C@@]2(CO1)c1cc(-c3cccnc3F)ccc1Oc1cnc(C3CCCOC3)cc12 (some centres undefined),11.3 nM,–,–,5800 nM,123 nM,–
NC1=N[C@@]2(CO1)c1cc(-c3cccnc3F)ccc1Oc1cnc([C@@H]3CCCCO3)cc12,–,–,–,11600 nM,–,–
NC1=N[C@@]2(CO1)c1cc(-c3cccnc3F)ccc1Oc1cnc([C@H]3CCCCO3)cc12,–,–,–,1040 nM,–,–
NC1=N[C@@]2(CO1)c1cc(-c3cccnc3F)ccc1Oc1cnc(N3CCOCC3)cc12,–,–,–,600 nM,20.5 nM,–
CC1(C)CN(c2cc3c(cn2)Oc2ccc(-c4cccnc4F)cc2[C@@]32COC(N)=N2)CCO1,4 nM,–,–,530 nM,22 nM,–
NC1=N[C@@]2(CO1)c1cc(-c3cccnc3F)ccc1Oc1cnc(N3CCC(F)(F)CC3)cc12,–,54 nM,–,140 nM,8.7 nM,–
NC1=N[C@@]2(CO1)c1cc(-c3cccnc3F)ccc1Oc1cnc(N3CCC(F)(F)C3)cc12,–,38 nM,32 nM,440 nM,4.1 nM,–
NC1=N[C@@]2(CO1)c1cc(-c3cccnc3F)ccc1Oc1cnc(N3CC[C@H](F)C3)cc12,–,–,–,2220 nM,–,–
NC1=N[C@@]2(CO1)c1cc(-c3cccnc3F)ccc1Oc1cnc(N3CC[C@@H](F)C3)cc12,–,–,–,680 nM,–,–
NC1=N[C@@]2(CO1)c1cc(-c3cccnc3F)ccc1Oc1cnc(-c3ccccc3)cc12,1.4 nM,–,–,650 nM,25.3 nM,–
NC1=N[C@@]2(CO1)c1cc(-c3cccnc3F)ccc1Oc1cnc(-c3ccccn3)cc12,3.8 nM,–,–,4100 nM,26.6 nM,–
NC1=N[C@@]2(CO1)c1cc(-c3cccnc3F)ccc1Oc1cnc(-c3ccncc3)cc12,2.5 nM,745 nM,365 nM,3190 nM,16 nM,56%
Cc1cc(-c2cc3c(cn2)Oc2ccc(-c4cccnc4F)cc2[C@@]32COC(N)=N2)ccn1,2.4 nM,62 nM,30 nM,3870 nM,15 nM,60%
NC1=N[C@]2(CO1)c1cc(C3=CCOCC3)ccc1Oc1ccc(-c3cccnc3F)cc12,–,–,–,–,18.5 nM,–
